Test results from patent US20040242660A1, “Substituted oxazolidinones for combinational therapy” (priority 2001, published 2004).
Read-outs that look alike come from different tables or passages of the source.

Key:
[1] = test system: thrombus in the carotid artery of rats; test: Rat thrombosis model (FeCl3-induced carotid artery thrombus), combinations; type: in vivo; conditions: 1 mg/kg of each active ingredient; for Reduction in thrombus weight after oral treatment: 10 rats per group; for Reduction in thrombus weight after oral treatment / Statistical significance of the reduction in thrombus weight (Student's t-test): oral; for Statistical significance of the reduction in thrombus weight (Student's t-test): p<0.05 regarded as significant; for Antithrombotic effect: single dosage or combination
Description: a) In vivo Investigations in a Rat Thrombosis Model The carotid artery of rats (HSD CPB:WU, Harlan Winkelmann) was exposed under anesthesia. A piece of filter paper impregnated with an aqueous 10% strength FeCl3 solution (dissolved in 1N aqueous hydrochloric acid) was cautiously pushed underneath the exposed vessel in accordance with the method described by Kurz et al. […] After 3 minutes, the piece of filter paper was removed. The carotid artery was removed after 15 minutes, and the thrombus was detached and immediately weighed. […] The animals in the control group had been treated with the corresponding solvent. The statistical significance was calculated using Student's t-test. Values with p<0.05 are regarded as a statistically significant effect (Medical Statistics, M J Campbell, […], Second Edition, John Wiley & Sons).

[2] = test system: thrombus formation in an arteriovenous shunt; test: Arteriovenous shunt model (rat), antithrombotic effect; type: in vivo
Description: b.1) Arteriovenous Shunt Model (Rat) Fasting male rats (strain: HSD CPB:WU) weighing 200-250 g were anesthetized with a Rompun/Ketavet solution (12 mg/kg/50 mg/kg). Thrombus formation was induced in an arteriovenous shunt by a method based on that described by Christopher N. Berry et al., Br. J. Pharmacol. (1994), 113, 1209-1214. For this purpose, the left jugular vein and the right carotid artery were exposed. An extracorporeal shunt was formed between the two vessels using a 10 cm-long polyethylene tube (PE 60). This polyethylene tube was secured in the middle by tying in a further 3 cm-long polyethylene tube (PE 160) which contained a roughened nylon thread forming a loop to produce a thrombogenic surface. The extracorporeal circulation was maintained for 15 minutes. The shunt was then removed and the nylon thread with the thrombus was immediately weighed. The blank weight of the nylon thread had been found before the start of the experiment. The test substances were administered either intravenously through the tail vein or orally by gavage to conscious animals before setting up the extracorporeal circulation.

human factor Xa (FXa) = human factor Xa (FXa) (Homo sapiens, UniProt P00742); test: Measurement of factor Xa inhibition (chromogenic substrate); type: biochemical; conditions: factor Xa inhibition
Description: a.1) Measurement of Factor Xa Inhibition
In this case, factor Xa eliminates p-nitroaniline from the chromogenic substrate.
The test substances were dissolved in various concentrations in DMSO and incubated with human FXa (0.5 nmol/l dissolved in 50 mmol/l tris buffer [C,C,C-tris(hydroxymethyl)-aminomethane], 150 mmol/l NaCl, 0.1% BSA (bovine serum albumine), pH=8,3) at 25° C. for 10 minutes. Pure DMSO serves as control.

[3] = intravenous administration, read-out: ED50 [mg/kg] i.v.
[4] = oral administration, read-out: ED50 [mg/kg] p.o.

Sequence of human factor Xa (FXa) (P00742 235-488 limits assumed): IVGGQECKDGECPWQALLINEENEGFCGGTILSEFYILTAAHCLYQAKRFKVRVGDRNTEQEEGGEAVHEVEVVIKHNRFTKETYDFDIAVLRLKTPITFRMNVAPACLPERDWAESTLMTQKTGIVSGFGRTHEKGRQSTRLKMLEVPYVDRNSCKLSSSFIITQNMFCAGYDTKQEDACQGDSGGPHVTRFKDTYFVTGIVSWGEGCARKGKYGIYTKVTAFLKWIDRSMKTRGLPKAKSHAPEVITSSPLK
Sequence of human factor Xa (FXa) (P00742 41-179 partner limits assumed): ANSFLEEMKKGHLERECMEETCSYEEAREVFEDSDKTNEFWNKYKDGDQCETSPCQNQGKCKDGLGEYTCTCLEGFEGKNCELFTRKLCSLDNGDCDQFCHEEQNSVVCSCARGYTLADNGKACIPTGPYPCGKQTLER

Row | IC50 (human factor Xa (FXa)) | SMILES | ED50 [2, 3] | further results
1 |  | COC(=O)[C@H](c1ccccc1Cl)N1CCc2sccc2C1 [Clopidogrel, clopidogrel, reference compound] |  | Reduction in thrombus weight after oral treatment [1]: 28%; Statistical significance of the reduction in thrombus weight (Student's t-test) [1]: no effect (p > 0.05); Antithrombotic effect [1]: inactive
2 |  | O=C(NC[C@H]1CN(c2ccc(N3CCOCC3)c(F)c2)C(=O)O1)c1ccc(Cl)s1 [Example 1, 5-chloro-N-{[(5S)-3-(3-fluoro-4-morpholinophenyl)-2-oxo-1,3-oxazolidin-5-yl]methyl}-2-thiophenecarboxamide] | 10 mg/kg | 
3 |  | O=C(NC[C@H]1CN(c2ccc(N3CCCC3=O)cc2)C(=O)O1)c1ccc(Cl)s1 [Example 17, 5-Chloro-N-({(5S)-2-oxo-3-[4-(2-oxo-1-pyrrolidinyl)phenyl]-1,3-oxazolidin-5-yl}methyl)-2-thiophenecarboxamide] | 6 mg/kg | 
4 |  | O=C(NC[C@H]1CN(c2ccc(N3CCOCC3=O)cc2)C(=O)O1)c1ccc(Cl)s1 [Example 44, 5-Chloro-N-({(5S)-2-oxo-3-[4-(3-oxo-4-morpholinyl)phenyl]-1,3-oxazolidin-5-yl}methyl)-2-thiophenecarboxamide] |  | Reduction in thrombus weight after oral treatment [1]: 22%; Statistical significance of the reduction in thrombus weight (Student's t-test) [1]: no effect (p > 0.05); Antithrombotic effect [1]: inactive; ED50 [2, 4]: 3 mg/kg
5 |  | O=C(NCC1CN(c2ccc(N3CCOCC3=O)c(F)c2)C(=O)O1)c1ccc(Cl)s1 (centres unmarked) [Example 95, 5-Chloro-N-({3-[3-fluoro-4-(3-oxo-4-morpholinyl)phenyl]-2-oxo-1,3-oxazolidin-5-yl}methyl)-2-thiophenecarboxamide] | 3 mg/kg | 
6 |  | O=C(NCC1CN(c2ccc(N3CCOCC3=O)c(C(F)(F)F)c2)C(=O)O1)c1ccc(Cl)s1 (centres unmarked) [Example 114, 5-Chloro-N-({2-oxo-3-[4-(3-oxo-4-morpholinyl)-3-(trifluoromethyl)phenyl]-1,3-oxazolidin-5-yl}methyl)-2-thiophenecarboxamide] | 3 mg/kg | 
7 |  | Cc1cc(N2CC(CNC(=O)c3ccc(Cl)s3)OC2=O)ccc1N1CCOCC1=O (centres unmarked) [Example 115, 5-Chloro-N-({3-[3-methyl-4-(3-oxo-4-morpholinyl)phenyl]-2-oxo-1,3-oxazolidin-5-yl}methyl)-2-thiophenecarboxamide] | 3 mg/kg | 
8 |  | Nc1cc(N2CC(CNC(=O)c3ccc(Cl)s3)OC2=O)ccc1N1CCOCC1=O (centres unmarked) [Example 123, N-({3-[3-Amino-4-(3-oxo-4-morpholinyl)phenyl]-2-oxo-1,3-oxazolidin-5-yl}-methyl)-5-chloro-2-thiophenecarboxamide] |  | ED50 [2, 4]: 3 mg/kg
9 | 600 nM | CC(=O)NCc1ccc(N2CC(CNC(=O)c3ccc(Cl)s3)OC2=O)cc1 (centres unmarked) [Example 153, N-[(3-{4-[(Acetylamino)methyl]phenyl}-2-oxo-1,3-oxazolidin-5-yl)methyl]-5-chloro-2-thiophenecarboxamide] |  | 
10 | 1300 nM | NC(=O)NCc1ccc(N2CC(CNC(=O)c3ccc(Cl)s3)OC2=O)cc1 (centres unmarked) [Example 154, N-{[3-(4-{[(Aminocarbonyl)amino]methyl}phenyl)-2-oxo-1,3-oxazolidin-5-yl]-methyl}-5-chloro-2-thiophenecarboxamide] |  | 
11 | 1200 nM | CC(=O)Nc1ccc(N2CC(CNC(=O)c3ccc(Cl)s3)OC2=O)cc1 (centres unmarked) [Example 155, N-({3-[4-(Acetylamino)phenyl]-2-oxo-1,3-oxazolidin-5-yl}methyl)-5-chloro-2-thiophenecarboxamide] |  | 
12 | 1300 nM | O=C(Nc1ccc(N2CC(CNC(=O)c3ccc(Cl)s3)OC2=O)cc1)c1cccs1 (centres unmarked) [Example 156, 5-Chloro-N-[(2-oxo-3-{4-[(2-thienylcarbonyl)amino]phenyl}-1,3-oxazolidin-5-yl)methyl]-2-thiophenecarboxamide] |  | 
13 | 730 nM | COCC(=O)Nc1ccc(N2CC(CNC(=O)c3ccc(Cl)s3)OC2=O)cc1 (centres unmarked) [Example 157, 5-Chloro-N-[(3-{4-[(methoxyacetyl)amino]phenyl}-2-oxo-1,3-oxazolidin-5-yl)-methyl]-2-thiophenecarboxamide] |  | 
14 | 460 nM | Cc1noc(C)c1C(=O)Nc1ccc(N2CC(CNC(=O)c3ccc(Cl)s3)OC2=O)cc1 (centres unmarked) [Example 158, N-{4-[5-({[(5-Chloro-2-thienyl)carbonyl]amino}methyl)-2-oxo-1,3-oxazolidin-3-yl]phenyl}-3,5-dimethyl-4-isoxazolecarboxamide] |  | 
15 | 1700 nM | O=C(NCC1CN(c2ccc(NS(=O)(=O)CCCCl)cc2)C(=O)O1)c1ccc(Cl)s1 (centres unmarked) [Example 159, 5-Chloro-N-{[3-(4-{[(3-chloropropyl)sulfonyl]amino}phenyl)-2-oxo-1,3-oxazolidin-5-yl]methyl}-2-thiophenecarboxamide] |  | 
16 | 140 nM | O=C(NCC1CN(c2ccc(N3CCCS3(=O)=O)cc2)C(=O)O1)c1ccc(Cl)s1 (centres unmarked) [Example 160, 5-Chloro-N-({3-[4-(1,1-dioxido-2-isothiazolidinyl)phenyl]-2-oxo1,3-oxazolidin-5-yl}methyl)-2-thiophenecarboxamide] |  | 
17 | 2.8 nM | O=C(NC[C@H]1CN(c2ccc(N3CCCCC3=O)cc2)C(=O)O1)c1ccc(Cl)s1 [Example 162, 5-Chloro-N-({(5S)-2-oxo-3-[4-(2-oxo-1-piperidinyl)phenyl]-1,3-oxazolidin-5-yl}-methyl)-2-thiophenecarboxamide] | 3 mg/kg | 
18 | 380 nM | O=C(NC[C@H]1CN(c2ccc(N3CCC3=O)cc2)C(=O)O1)c1ccc(Cl)s1 [Example 164, 5-Chloro-N-({(5S)-2-oxo-3-[4-(2-oxo-1-azetidinyl)phenyl]-1,3-oxazolidin-5-yl}-methyl)-2-thiophenecarboxamide] |  | 
19 | 2000 nM | CC(C)(C)OC(=O)N1CC(=O)N(c2ccc(N3CC(CNC(=O)c4ccc(Cl)s4)OC3=O)cc2)C(=O)C1 (centres unmarked) [Example 165, tert-Butyl 4-{4-[5-({[(5-chloro-2-thienyl)carbonyl]amino}methyl)-2-oxo-1,3-oxazolidin-3-yl]phenyl}-3,5-dioxo-1-piperazinecarboxylate] |  | 
20 | 500 nM | O=C(NCC1CN(c2ccc(S(=O)(=O)N3CCCC3)cc2)C(=O)O1)c1ccc(Cl)s1 (centres unmarked) [Example 167, 5-Chloro-N-({2-oxo-3-[4-(1-pyrrolidinylsulfonyl)phenyl]-1,3-oxazolidin-5-yl}-methyl)-2-thiophenecarboxamide] |  | 
